Assay type in all cases: cell-based
The subject of one experiment is Lovo cells (G13D). In words: Cell viability assay (CellTiter-Glo), Lovo cells. The settings on record: Homo sapiens, 72 h; Lovo cells, 3 days incubation, CellTiter-Glo luminescence; read-out: Inhibition of Cancerous Cells IC50 Lovo (G13D). In outline: (§1)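 Luminescence readout (CellTiter-Glo, 10 min with shaking) after 3-day compound or DMSO exposure at 37 °C. H358/SW48 in RPMI 1640, Lovo/SW480 in DMEM, assay medium with 2.5% FBS; Lovo seeded at 4,000 or 1,000 cells/well versus 2,000 or 500 for others.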

Another experiment concerns H358 cells (G12C). Put plainly: Cell viability assay (CellTiter-Glo), H358 cells. Conditions: Homo sapiens, NCI-H358, 72 h; H358 cells, 3 days incubation, CellTiter-Glo luminescence; read-out: Inhibition of Cancerous Cells IC50 H358 (G12C). In outline: as §1
The subject of another experiment is AsPC-1 cells (G12D). In words: Cell viability assay (CellTiter-Glo), AsPC-1 cells. Conditions: Homo sapiens, ASPC1, 72 h, 3 days incubation, CellTiter-Glo luminescence, read-out: Inhibition of Cancerous Cells IC50 AsPC-1 (G12D). The protocol: H358, H23, SW48, and AsPC-1 cells were cultured in RPMI 1640 media supplemented with 10% fetal bovine serum, streptomycin, and penicillin. Lovo and SW480 cells were cultured in DMEM media supplemented with 10% fetal bovine serum, streptomycin, and penicillin. The cell lines were plated in their respective medium supplemented with 2.5% fetal bovine serum, streptomycin, and penicillin. All cell lines were plated in white walled 96-well plates at 2,000 cells/well or 384-well plates at 500 cells/well, except Lovo, which were plated at 4,000 or 1,000 cells/well, respectively. The cells were incubated in DMSO (control) or a compound for 3 days at 37° C. under 5% CO2. A CELLTITER-GLO® reagent (100 μL) was then added to each well. After a 10 min incubation with shaking, luminescence was measured using an ENVISION® multimode plate reader.

For another experiment, the system named is SW480 cells (G12V). Put plainly: Cell viability assay (CellTiter-Glo), SW480 cells. Conditions: Homo sapiens, 72 h; SW480 cells, 3 days incubation, CellTiter-Glo luminescence; read-out: Inhibition of Cancerous Cells IC50 SW480 (G12V). Put shortly: as §1
Another experiment has as its system SW48 cells (wt). Put plainly: Cell viability assay (CellTiter-Glo), SW48 cells. The settings on record: Homo sapiens, 72 h; SW48 cells, 3 days incubation, CellTiter-Glo luminescence; read-out: Inhibition of Cancerous Cells IC50 SW48 (wt). In outline: as §1

Consider `COc1cc2c(N[C@H](C)c3cccc(Br)c3)nc(C)nc2cc1OCCN1CCC(CN2CCC(c3cc(F)cc4c3CN(C3CCC(=O)NC3=O)C4=O)CC2)CC1` (stereo partly drawn) [Compound A65, 3-(4-(1-((1-(2-((4-(((R)-1-(3-Bromophenyl)ethyl)amino)-6-methoxy-2-methyl-quinazolin-7-yl)oxy)ethyl)piperidin-4-yl)methyl)piperidin-4-yl)-6-fluoro-1-oxoisoindolin-2-yl)-piperidine-2,6-dione], for which the IC50 with Lovo cells (G13D) is 1100 nM; in the experiment with H358 cells (G12C) it was 1600 nM; in the experiment with AsPC-1 cells (G12D), 3300 nM; in the experiment on SW480 cells (G12V) it was 1100 nM; in the experiment on SW48 cells (wt), 970 nM.
Turning to `CN[C@@H](C)C(=O)N[C@H](C(=O)N1C[C@@H](NC(=O)CCCCCCOc2cc3nc(C)nc(N[C@H](C)c4cccc(Br)c4)c3cc2OC)C[C@H]1C(=O)N[C@@H]1CCCc2ccccc21)C1CCCCC1` [Compound B5, (2S,4S)-4-(7-((4-(((R)-1-(3-bromophenyl)ethyl)amino)-6-methoxy-2-methyl-quinazolin-7-yl)oxy)heptanamido)-1-((S)-2-cyclohexyl-2-((S)-2-(methylamino)propanamido)-acetyl)-N—((R)-1,2,3,4-tetrahydronaphthalen-1-yl)pyrrolidine-2-carboxamide], the IC50 is 770 nM in the experiment on Lovo cells (G13D); 650 nM in the experiment with H358 cells (G12C); 1500 nM with AsPC-1 cells (G12D); 440 nM with SW480 cells (G12V); 750 nM in the experiment on SW48 cells (wt).
For the compound `CN[C@@H](C)C(=O)N[C@H](C(=O)N1C[C@@H](NC(=O)CCCCCCCCCCOc2cc3nc(C)nc(N[C@H](C)c4cccc(Br)c4)c3cc2OC)C[C@H]1C(=O)N[C@@H]1CCCc2ccccc21)C1CCCCC1` [Compound B11, (2S,4S)-4-(11-((4-(((R)-1-(3-Bromophenyl)ethyl)amino)-6-methoxy-2-methyl-quinazolin-7-yl)oxy)undecanamido)-1-((S)-2-cyclohexyl-2-((S)-2-(methylamino)propanamido)-acetyl)-N—((R)-1,2,3,4-tetrahydronaphthalen-1-yl)pyrrolidine-2-carboxamide], the IC50 with Lovo cells (G13D) is 390 nM; in the experiment with H358 cells (G12C), 530 nM; with AsPC-1 cells (G12D), 960 nM; with SW480 cells (G12V), 360 nM; in the experiment on SW48 cells (wt), 530 nM.
On to `COc1cc2c(N[C@H](C)c3cccc(Br)c3)nc(C)nc2cc1OCCCCCC(=O)N(C)Cc1scc2c1CN(C1CCC(=O)NC1=O)C2=O` (stereo partly drawn) [Compound A63, 6-((4-(((R)-1-(3-Bromophenyl)ethyl)amino)-6-methoxy-2-methylquinazolin-7-yl)oxy)-N-((5-(2,6-dioxopiperidin-3-yl)-4-oxo-5,6-dihydro-4H-thieno[3,4-c]pyrrol-1-yl)methyl)-N-methylhexanamide], for which the 50% inhibitory concentration (IC50) was below 14 nM with Lovo cells (G13D); 130 nM in the experiment with H358 cells (G12C); 3500 nM with AsPC-1 cells (G12D); 650 nM in the experiment with SW480 cells (G12V); 20 nM in the experiment on SW48 cells (wt).
The like results for `COc1cc2c(N[C@H](C)c3cccc(Br)c3)nc(C)nc2cc1OCCCCCCCCCCCCNC(=O)[C@H](CC(C)C)NC(=O)[C@@H](O)[C@H](N)Cc1ccccc1` [Compound B9, (S)-2-((2S,3R)-3-Amino-2-hydroxy-4-phenylbutanamido)-N-(12-((4-(((R)-1-(3-bromophenyl)ethyl)amino)-6-methoxy-2-methylquinazolin-7-yl)oxy)dodecyl)-4-methylpentanamide] were, in that order, 730 nM, 1200 nM, 2700 nM, 960 nM and 1400 nM.
The like results for `COc1cc2c(N[C@@H](C)c3cc(N)cc(C(F)(F)F)c3)nc(C)nc2cc1OCCCCCCCN1CCC(c2cc3c(cc2F)C(=O)N(C2CCC(=O)NC2=O)C3)CC1` (stereo partly drawn) [Compound A68, 3-(5-(1-(7-((4-(((S)-1-(3-Amino-5-(trifluoromethyl)phenyl)ethyl)amino)-6-methoxy-2-methylquinazolin-7-yl)oxy)heptyl)piperidin-4-yl)-6-fluoro-1-oxoisoindolin-2-yl)piperidine-2,6-dione] were, in that order, 630 nM, 690 nM, 1500 nM, 530 nM and 500 nM.
The like results for `COc1cc2c(N[C@H](C)c3cccc(Br)c3)nc(C)nc2cc1OCCCCCCCCCNc1cccc2nc(C)n(C3CCC(=O)NC3=O)c(=O)c12` (stereo partly drawn) [Compound A45, 3-(5-((9-((4-(((R)-1-(3-Bromophenyl)ethyl)amino)-6-methoxy-2-methyl-quinazolin-7-yl)oxy)nonyl)amino)-2-methyl-4-oxoquinazolin-3(4H)-yl)piperidine-2,6-dione] were, in that order, 1200 nM, 2300 nM, 5200 nM, 900 nM and 2000 nM.
On to `COc1cc2c(N[C@H](C)c3cccc(Br)c3)nc(C)nc2cc1OCCCCCCCOc1cc(-c2scnc2C)ccc1CNC(=O)[C@@H]1C[C@@H](O)CN1C(=O)[C@@H](NC(C)=O)C(C)(C)C` [Compound D11, (2S,4R)-1-((S)-2-Acetamido-3,3-dimethylbutanoyl)-N-(2-((7-((4-(((R)-1-(3-bromophenyl)ethyl)amino)-6-methoxy-2-methylquinazolin-7-yl)oxy)heptyl)oxy)-4-(4-methylthiazol-5-yl)benzyl)-4-hydroxypyrrolidine-2-carboxamide], for which the IC50 was 2600 nM in the experiment with Lovo cells (G13D); 1600 nM in the experiment on H358 cells (G12C); above 10000 nM in the experiment on AsPC-1 cells (G12D); 1200 nM in the experiment on SW480 cells (G12V); 5900 nM in the experiment with SW48 cells (wt).
For `COc1cc2c(N[C@H](C)c3cccc(Br)c3)nc(C)nc2cc1OCCCCN1CCN(C(=O)CNc2cc3c(cc2F)C(=O)N(C2CCC(=O)NC2=O)C3)CC1` (stereo partly drawn) [Compound A30, 3-(5-((2-(4-(4-((4-(((R)-1-(3-Bromophenyl)ethyl)amino)-6-methoxy-2-methyl-quinazolin-7-yl)oxy)butyl)piperazin-1-yl)-2-oxoethyl)amino)-6-fluoro-1-oxoisoindolin-2-yl)-piperidine-2,6-dione], the IC50 is 40 nM in the experiment on Lovo cells (G13D); 4200 nM with H358 cells (G12C); 7800 nM in the experiment with AsPC-1 cells (G12D); 3900 nM in the experiment on SW480 cells (G12V); 640 nM with SW48 cells (wt).
Consider `COc1cc2c(N[C@H](C)c3cccc(Br)c3)nc(C)nc2cc1OCCCCCCC(=O)N1CCC(c2cc(F)cc3c2CN(C2CCC(=O)NC2=O)C3=O)CC1` (stereo partly drawn) [Compound A59, 3-(4-(1-(7-((4-(((R)-1-(3-Bromophenyl)ethyl)amino)-6-methoxy-2-methyl-quinazolin-7-yl)oxy)heptanoyl)piperidin-4-yl)-6-fluoro-1-oxoisoindolin-2-yl)piperidine-2,6-dione], for which the IC50 with Lovo cells (G13D) was 4900 nM; with H358 cells (G12C) it was above 10000 nM; in the experiment with AsPC-1 cells (G12D) it was above 10000 nM; in the experiment on SW480 cells (G12V) it was 4700 nM; in the experiment with SW48 cells (wt) it was 5300 nM.
Turning to `COc1cc2c(N[C@H](C)c3cccc(Br)c3)nc(C)nc2cc1OCCCN1CCC2(CC1)CCN(c1cc3c(cc1F)C(=O)N(C1CCC(=O)NC1=O)C3)CC2` (stereo partly drawn) [Compound A44, 3-(5-(9-(3-((4-(((R)-1-(3-Bromophenyl)ethyl)amino)-6-methoxy-2-methyl-quinazolin-7-yl)oxy)propyl)-3,9-diazaspiro[5.5]undecan-3-yl)-6-fluoro-1-oxoisoindolin-2-yl)piperidine-2,6-dione], the IC50 in the experiment on Lovo cells (G13D) was found to be 530 nM; in the experiment with H358 cells (G12C) it was 1200 nM; with AsPC-1 cells (G12D) it was 980 nM; in the experiment with SW480 cells (G12V) it was 440 nM; in the experiment on SW48 cells (wt), 610 nM.

These data come from US20240025863A1, “SOS1 PROTEIN DEGRADERS, PHARMACEUTICAL COMPOSITIONS THEREOF, AND THEIR THERAPEUTIC APPLICATIONS” (BioTheryX, Inc., priority 2020, published 2024).
